Earlier results on one molecule are cited in US20140328945A1, “METHOD FOR STABILIZING AN ELECTROCHEMICALLY GENERATED SANITIZING SOLUTION HAVING A PREDETERMINED LEVEL OF FREE AVAILABLE CHLORINE AND pH” (Aquaxo, Inc., priority 2013, published 2014).

Data set [1] relates to E. coli. Conditions: 2.6 ppm, dilute bacterial suspensions, in about 5 minutes.
The test system of a further data set is Escherichia coli. Conditions: E. coli exposed to Hypochlorous Acid.
Data set [2] has as its system E. coli.

`OCl` [Hypochlorous Acid]: the “concentration required for 100% kill in 5 minutes” value in the data set on A. aerogenes is recorded as 0.08 ppm; in the data set on S. typhosa, 0.06 ppm; in the data set with S. clysvnteriae, 0.05 ppm; with E. coli [2], 0.03 ppm. Besides, the growth inhibition with E. coli [1] is reported as 100%. Besides, in the data set on Escherichia coli, the “time to lose viability” value is “less than 100 ms”.
